Test results as given in paper PMC8631675, “Neuroprotective effects of some epigenetic modifying drugs’ on Chlamydia pneumoniae-induced neuroinflammation: A novel model” (PLoS ONE, 2021).
Read-outs that look alike come from different tables or passages of the source.

How the values were obtained:
[1] = tested on: differentiated SH-SY5Y cells; assay: Cell proliferation (cytotoxicity) analysis with xCELLigence, SH-SY5Y; format: cell-based, human; details: for IC50: Homo sapiens, SH-SY5Y
Protocol: (§1) Cell proliferation analysis was performed with xCELLigence Real-Time Cell Analysis System to assess TSA, RG108, givinostat, and rifampin concentrations for use in both models. Differentiated SH-SY5Y and HMC3 microglia cells were seeded at a 5x10^3 density per well and incubated 24 h until CI values reached a log phase. The system stopped at the end of 24 h, 100, 10 and 1 μM TSA, givinostat, RG108 and rifampin were applied on current media and the cell viability was tracked. […] Simultaneously, slope plots were drawn using the CI values at 24 and 48 hours, and the statistical significance of the values discovered by assuming the average CI values of the control wells to be 100% was calculated.

[2] = tested on: differentiated SH-SY5Y cells; assay: Cell viability against Aβ-induced neurotoxicity, xCELLigence; format: cell-based, human; details: 24 h pretreatment (drugs 100 nM; CFS 1 μg/ml + IFN-γ; LPS 100 ng/ml + IFN-γ), then 5 μM Aβ (1–42) aggregates 24 h
Protocol: Pathological deterioration in AD is mainly associated with overproduction of the Aβ peptide and the Aβ (1–42) variant is the toxic form that is more predominant in Alzheimer’s patients. In this study, a modified oligomeric Aβ (1–42) neurotoxicity analysis protocol was applied in order to elucidate the effects of treatment groups on SH-SY5Y cell viability in the presence of Aβ [56]. In order to model Aβ-induced neurotoxicity in vitro, an oligomeric form of the Aβ1–42 peptide was prepared by diluting with ice-cold Ham’s F12 Nutrient Mixture medium dissolved in PBS containing 0.02 M NaOH at a final concentration of 50 μM and kept in a 37°C incubator for 7 days to form peptide aggregates prior to the experiments. 5x10^3 SH-SY5Y cells were differentiated inside the xCELLigence instrument for 5 days and treated with 100 nM TSA, RG108, givinostat, rifampin; 100 ng/ml LPS+IFN-ɣ or 1 μg/ml CFS+IFN-ɣ for 24 h in order to evaluate neuroprotection. The co-culture was performed in the same way as the neuroinflammation model. Neurotoxicity was obtained instead of neuroinflammation by diluting to 5 μM with fresh medium and adding Aβ1–42 aggregates to the wells for 24 h in 100 μl of medium. Cell viability data was then monitored for 24 h and analyzed within the instrument.

SH-SY5Y cells = assay: Total ROS/Superoxide detection; format: cell-based, human
Protocol: The Total ROS/Superoxide Detection Kit (ENZ-51010, Enzo) was used according to the kit process for evaluating the protective effects of the treatment groups on SH-SY5Y cells seeded at a 2x10^4 density per well in 96-well plates and Aβ was applied. ROS inhibitor N-acetyl cysteine (NAC) was applied at 5 mM concentration to negative control groups 30 minutes before the experiment and after incubation, 100 μL of “ROS/Superoxide Detection Solution” was added to the wells in the kit. The same procedure was done without the application of ROS inhibitor. Fluorometric analysis of stained cells was analyzed with Cytation 3 Cell Imaging Multi-Mode Reader (BioTek) using 490/525 nm and 550/620 nm filter sets.

mutated COS-7 cells = tested on: mutated COS-7 cells; design: method as in PMID 27020329; details: mutated COS-7 cells expressing amyloid precursor protein; cited from earlier work
HMC3 microglia cells = assay: Cell proliferation (cytotoxicity) analysis with xCELLigence, HMC3; format: cell-based, human; details: for IC50: Homo sapiens
Protocol: as §1

[3] = tested on: low density lipoprotein receptor-related protein 1 (LRP-1) and P-glycoprotein (P-gp); design: method as in PMID 22504320; details: by upregulating LRP-1 and P-gp; cited from earlier work
[4] = tested on: differentiated SH-SY5Y cells; assay: Annexin V-PI staining of Aβ-induced cell death, flow cytometry; format: cell-based, human; details: pretreatment (drugs 100 nM; LPS 100 ng/ml + IFN-γ; CFS 1 μg/ml + IFN-γ) + 5 μM Aβ 24 h
Protocol: To determine neuronal apoptosis associated with Aβ exposure, 25x10^3 differentiated SH-SY5Y cells were seeded in 24-well plates and Aβ was applied. After 24 h, cells were trypsinized and staining was performed according to the CF 488A Annexin V and PI Apoptosis Kit (Biotium, USA, Cat. No: 30061) protocol. After washing the cells with 1xPBS, the working solution was prepared by diluting the PI with Annexin V binding buffer included in the kit. 5 μl Annexin V and 2 μl PI working solution were added to the centrifuge tubes and binded with 100 μl Annexin V binding buffer. After the samples were incubated for 30 minutes on ice and in the dark, 400 μl of Annexin V binding buffer was added to each tube and the samples were measured and analyzed in a BD Accuri™ C6 flow cytometry device.

TNF-α gene expression = assay: RT-PCR TNF-α gene expression in HMC3 microglia cells; format: cell-based, human; details: 24 h
Protocol: (§2) LPS and/or proinflammatory cytokines like IFN-ɣ, have been used alone or in combination in most in vitro neuroinflammation models to study microglial activation. Therefore, the effects of lyophilized cell free supernatant (CFS)+IFN-ɣ combination, which was determined to increase IL-1β and CD218a cytokine levels most effectively, on IL-1β, TNF-α and IL-8 gene expressions were compared with LPS+IFN-ɣ combination in order to determine the activation concentration.
(§3) RNA isolations were performed in MagNA Pure Compact System (Roche, Germany) using MagNA Pure Compact RNA Isolation Kit® (Catalog No: 04802993001, Roche, Germany) after 24-h. The total RNA amounts of the samples were measured at 260 and 280 nm in the NanoDrop 2000® (Thermo Fisher, USA) spectrophotometer. cDNA was obtained using the Transcriptor High Fidelity cDNA Synthesis Kit® (Catalog no: 05091284001, Roche, Germany) following the kit protocol from […] RNA of each sample. After the cDNA samples were replicated by PCR method, the expression levels were determined with the LightCycler® 480 Real-Time PCR System (Roche, Germany) using the IL-1β, TNF-α and IL-8 primers (PRZ BioTech, Turkey). Actin beta (ACTB) was used as a housekeeping gene. Primer sequences and RT-PCR cycling conditions are shown in S1 and S2 Tables. Results were analyzed according to the changes in the amplification levels compared to the control group with the analysis software of the instrument.

SH-SY5Y cell = tested on: SH-SY5Y cell; design: method as in PMID 31837307, PMID 32087283; details: LPS alone; cited from earlier work
IL-1β gene expression = assay: RT-PCR IL-1β gene expression in HMC3 microglia cells; format: cell-based, human; details: 24 h
Protocol: as §2, §3

CD11b = assay: Active microglia marker CD11b in HMC3 cells by flow cytometry; format: cell-based, human; details: 24 hours, control 10.1%
Protocol: HMC3 microglia cells were seeded in 12-well plates at a density of 75x10^3 cells per well and treated with treatment groups for 24 h. Then, cells were detached and centrifuged with Cell Staining Buffer (BioLegend, USA, Cat. No: 420201) for 5 minutes and the supernatant was discarded. Blocking was performed with 5 μl Human TruStain Fcx (BioLegend, USA, Cat. No: 422302) Fc receptor blocker solution diluted in 100 μl Cell Staining Buffer for 10 minutes at room temperature to reduce non-specific binding. The blocker was removed by centrifugation and the cells were stained with 5 μl PE anti-mouse/human CD11b Antibody (BioLegend, USA, Cat. No: 101208) diluted 1:5 in 20 μl Cell Staining Buffer for 15 minutes on ice in the dark. Then, the cells were washed 2 times with 2 ml Cell Staining Buffer and analyzed within 500 μl buffer using the BD Accuri ™ C6 flow cytometer.

IL-8 gene expression = assay: RT-PCR IL-8 gene expression in HMC3 microglia cells; format: cell-based, human; details: 24 h
Protocol: as §2, §3

[5] = HMC3, 10 ng/ml + 10 ng/ml IFN-ɣ
[6] = HMC3, 100 ng/ml + 10 ng/ml IFN-ɣ

CO[C@H]1/C=C/O[C@@]2(C)Oc3c(C)c(O)c4c(O)c(c(/C=N/N5CCN(C)CC5)c(O)c4c3C2=O)NC(=O)/C(C)=C\C=C\[C@H](C)[C@H](O)[C@@H](C)[C@@H](O)[C@@H](C)[C@H](OC(C)=O)[C@@H]1C [Rifampin, rifampin]
Reduction of differentiated SH-SY5Y cell viability ([1]; 1 μM, 24 hours): 30.28%
Reduction of differentiated SH-SY5Y cell viability ([1]; 1 μM, 48 hours): 17.16%
Reduction of differentiated SH-SY5Y cell viability ([1]; 10 μM, 24 hours): 46.98%
Reduction of differentiated SH-SY5Y cell viability ([1]; 10 μM, 48 hours): 25%
Reduction of differentiated SH-SY5Y cell viability ([1]; 100 μM, 24 hours): 97.24%
Reduction of differentiated SH-SY5Y cell viability ([1]; 100 μM, 48 hours): 98.61%
IC50 ([1]; 24 h, from CI values at 24th hour, 1, 10 and 100 μM tested, read-out: IC50 Values 24h SH-SY5Y): > 400 µM
IC50 ([1]; 48 h, from CI values at 48th hour, 1, 10 and 100 μM tested, read-out: IC50 Values 48h SH-SY5Y): 64.4 µM
CI values compared to the control group [2]: 120.7%
Increase of total amount of ROS compared to the control group, with NAC (SH-SY5Y cells; 30 minutes NAC 5 mM, treated (drugs 100 nM; LPS 100 ng/ml; CFS 1 μg/ml, with IFN-γ) prior to Aβ exposure): 0.25%
Decrease of total ROS amount according to the Aβ group (SH-SY5Y cells; cells treated (drugs 100 nM; LPS 100 ng/ml; CFS 1 μg/ml, with IFN-γ) before exposure to Aβ, without NAC): 43.14%
Increase of total amount of ROS compared to the control group (SH-SY5Y cells; cells treated (drugs 100 nM; LPS 100 ng/ml; CFS 1 μg/ml, with IFN-γ) before exposure to Aβ, without NAC, not significant): 0.43%
Effect on Aβ, tau, and α-synuclein aggregation (mutated COS-7 cells): minimize Aβ, tau, and α-synuclein aggregation
Reduction of HMC3 cell viability compared to the control group (HMC3 microglia cells; 10 μM, 24 hours): 12.72%
Reduction of HMC3 cell viability compared to the control group (HMC3 microglia cells; 10 μM, 48 hours): 17.79%
Reduction of HMC3 cell viability compared to the control group (HMC3 microglia cells; 100 μM, 24 hours): 15.74%
Reduction of HMC3 cell viability compared to the control group (HMC3 microglia cells; 100 μM, 48 hours): 28.72%
IC50 (HMC3 microglia cells; HMC3, 24 h, from CI values at 24th hour, 1, 10 and 100 μM tested, read-out: IC50 Values 24h HMC3): 33.2 µM
IC50 (HMC3 microglia cells; HMC3, 48 h, from CI values at 48th hour, 1, 10 and 100 μM tested, read-out: IC50 Values 48h HMC3): 31 µM
Effect on Aβ clearance [3]: increasing Aβ clearance
Necrotic effect (Q5-UL) ([4]; control 1.6%): 8.1%
Apoptotic effect (early apoptosis + late apoptosis) ([4]; control 1.9%): 5.8%
Percentage of living cells (Live) ([4]; control 96.5%): 86.2%

lipopolysaccharide [LPS]
TNF-α expression level compared to the control group (TNF-α gene expression; [5]): 1.55 fold
TNF-α expression level compared to the control group (TNF-α gene expression; [6]): 1.41 fold
TNF-α expression level compared to the control group (TNF-α gene expression; HMC3, 1 μg/ml + 10 ng/ml IFN-ɣ): 0.82 fold
Effect on SH-SY5Y cell viability (SH-SY5Y cell): no effect
IL-1β expression level compared to the control group (IL-1β gene expression; [5]): 1.64 fold
IL-1β expression level compared to the control group (IL-1β gene expression; [6]): 3.21 fold
IL-1β expression level compared to the control group (IL-1β gene expression; HMC3, 1 μg/ml + 10 ng/ml IFN-ɣ): 1.83 fold
CD11b antibody levels (positive gate V-R) (CD11b; [6]): 42.4%
CD11b antibody levels (positive gate V-R) (CD11b; HMC3, 1 μg/ml + 10 ng/ml IFN-ɣ): 23%
IL-8 expression level compared to the control group (IL-8 gene expression; [5]): 3.07 fold
IL-8 expression level compared to the control group (IL-8 gene expression; [6]): 3.88 fold
IL-8 expression level compared to the control group (IL-8 gene expression; HMC3, 1 μg/ml + 10 ng/ml IFN-ɣ): 13.64 fold
